# Test results published in ChEMBL document CHEMBL5230081, “Battle against Vancomycin-Resistant Bacteria: Recent Developments in Chemical Strategies” (J Med Chem, 2019).
# What was measured:
# Assay type in all cases: functional
# Pseudomonas aeruginosa [1] = assay: Antibacterial activity against multi drug resistant Pseudomonas aeruginosa assessed as reduction in microbial growth after 16 to 18 hrs by microbroth dilution method; details: time 16-18 hrs
# Enterococcus faecium [2] = assay: Antimicrobial activity against Vancomycin-resistant Enterococcus faecium ATCC 51559 assessed as inhibition in microbial growth measured after 48 hrs by microbroth dilution method
# Pseudomonas aeruginosa [3] = assay: Antibacterial activity against Pseudomonas aeruginosa R590 assessed as reduction in bacterial growth by broth microdilution method
# Enterobacter cloacae = assay: Antibacterial activity against Enterobacter cloacae NDM-1 assessed as reduction in bacterial growth by broth microdilution method
# Acinetobacter baumannii [4] = assay: Antibacterial activity against Acinetobacter baumannii R4942 assessed as reduction in bacterial growth by broth microdilution method
# Escherichia coli [5] = assay: Antibacterial activity against Escherichia coli ATCC 25922 assessed as bacterial growth inhibition measured after 48 hrs in presence of vancomycin
# Klebsiella pneumoniae = assay: Antibacterial activity against Klebsiella pneumoniae R3949 assessed as reduction in bacterial growth in presence of Meropenem by broth microdilution method
# Acinetobacter baumannii [6] = assay: Antibacterial activity against Acinetobacter baumannii R4942 assessed as reduction in bacterial growth in presence of telavancin by broth microdilution method
# Acinetobacter baumannii [7] = assay: Antibacterial activity against Acinetobacter baumannii R4942 assessed as reduction in bacterial growth in presence of teicoplanin by broth microdilution method
# Acinetobacter baumannii [8] = assay: Antimicrobial activity against Acinetobacter baumannii assessed as microbial growth inhibition
# Escherichia coli [9] = assay: Antimicrobial activity against Escherichia coli ATCC 8739 assessed as microbial growth inhibition in presence of Vancomycin by agar dilution method
# Pseudomonas aeruginosa [10] = assay: Antibacterial activity against Pseudomonas aeruginosa R590 assessed as reduction in bacterial growth in presence of vancomycin by broth microdilution method
# Acinetobacter baumannii [11] = assay: Antimicrobial activity against Acinetobacter baumannii ATCC 17978 assessed as microbial growth inhibition
# Escherichia coli [12] = assay: Antibacterial activity against Escherichia coli assessed as bacterial growth inhibition measured after 48 hrs in presence of vancomycin
# Pseudomonas aeruginosa [13] = assay: Antibacterial activity against colistin-resistant Pseudomonas aeruginosa PA101243 assessed as reduction in bacterial growth after 18 hrs by microbroth dilution method
# Escherichia coli [14] = assay: Synergistic antibacterial activity against Escherichia coli in presence of Trimethoprim
# Enterococcus faecalis [15] = assay: Antimicrobial activity against Vancomycin - resistant Enterococcus faecalis assessed as inhibition of bacterial growth
# Enterococcus faecalis [16] = assay: Antibiofilm activity against Enterococcus faecalis ATCC 47077 biofilms assessed as biofilm eradication
# Escherichia coli [17] = assay: Synergistic antibacterial activity against multidrug-resistant Escherichia coli assessed as reduction in bacterial viability after 12 hrs in presence of 1/2 MIC of nitrofurantoin
# Pseudomonas aeruginosa [18] = assay: Antibacterial activity against Pseudomonas aeruginosa ATCC 27853 assessed as bacterial growth inhibition measured after 24 hrs by microbroth dilution method
# Staphylococcus aureus = assay: Antibacterial activity against Staphylococcus aureus assessed as biofilm formation
# Pseudomonas aeruginosa [19] = assay: Synergistic antibacterial activity against multidrug-resistant Pseudomonas aeruginosa ATCC 27853 assessed as reduction in bacterial viability after 12 hrs in presence of 1/2 MIC of vancomycin
# Escherichia coli [20] = assay: Synergistic antibacterial activity against Escherichia coli in presence of nitrofurantoin
# Escherichia coli [21] = assay: Synergistic antibacterial activity against multidrug-resistant Escherichia coli assessed as reduction in bacterial viability after 12 hrs in presence of 1/2 MIC of trimethoprim
# Enterococcus faecium [22] = assay: Antibacterial activity against Vancomycin-resistant Enterococcus faecium assessed as reduction in bacterial growth measured after 48 hrs by microbroth dilution method
# Enterococcus faecalis [23] = assay: Antimicrobial activity against Vancomycin - resistant Enterococcus faecalis SR7914 assessed as inhibition of bacterial growth
# Enterococcus faecium [24] = assay: Antibacterial activity against Enterococcus faecium SR7917 (VRE)
molecule,measurement,setting,value
NC[C@H]1O[C@H](O[C@H]2[C@H](O)[C@@H](O[C@H]3O[C@H](CO)[C@@H](O)[C@H](N)[C@H]3O)[C@H](N)C[C@@H]2N)[C@H](N)C[C@@H]1O [TOBRAMYCIN],MIC,Pseudomonas aeruginosa [1],0.7 µM
CCCCCCCCCCCCCC[N+](C)(C)CCCNC(=O)[C@H]1NC(=O)[C@H]2NC(=O)[C@H](NC(=O)[C@@H]3NC(=O)[C@H](CC(N)=O)NC(=O)[C@H](NC(=O)[C@@H](CC(C)C)NC)[C@H](O)c4ccc(c(Cl)c4)Oc4cc3cc(c4O[C@@H]3O[C@H](CO)[C@@H](O)[C@H](O)[C@H]3O[C@H]3C[C@](C)(N)[C@H](O)[C@H](C)O3)Oc3ccc(cc3Cl)[C@H]2O)c2ccc(O)c(c2)-c2c(O)cc(O)cc21,MIC,Enterococcus faecium [2],1.2 µM
same,MIC,Pseudomonas aeruginosa [3],6.1 µM
same,MIC,Enterobacter cloacae,12.5 µM
same,MIC,Acinetobacter baumannii [4],3 µM
same,MIC,Escherichia coli [5],12.5 µg/mL
same,MIC,Klebsiella pneumoniae,3.15 µg/mL
same,MIC,Acinetobacter baumannii [6],< 1 µg/mL
same,MIC,Acinetobacter baumannii [7],≤ 2 µg/mL
same,MIC,Acinetobacter baumannii [8],3 µM
same,MIC,Escherichia coli [9],6 µg/mL
same,MIC,Pseudomonas aeruginosa [10],0.5 µg/mL
same,MIC,Acinetobacter baumannii [11],≤ 2 µg/mL
same,MIC,Escherichia coli [12],6.25 µg/mL
C[C@@H](O)[C@H]1C(=O)N2C(C(=O)O)=C(S[C@@H]3CN[C@H](C(=O)N(C)C)C3)[C@H](C)[C@H]12 [MEROPENEM],MIC,Pseudomonas aeruginosa [13],< 1 µg/mL
CN[C@H](CC(C)C)C(=O)N[C@H]1C(=O)N[C@@H](CC(N)=O)C(=O)N[C@H]2C(=O)N[C@H]3C(=O)N[C@H](C(=O)N[C@H](C(=O)O)c4cc(O)cc(O)c4-c4cc3ccc4O)[C@H](O)c3ccc(c(Cl)c3)Oc3cc2cc(c3O[C@@H]2O[C@H](CO)[C@@H](O)[C@H](O)[C@H]2O[C@H]2C[C@](C)(N)[C@H](O)[C@H](C)O2)Oc2ccc(cc2Cl)[C@H]1O [VANCOMYCIN],MIC,Escherichia coli [14],0.2 µg/mL
same,MIC,Enterococcus faecalis [15],31 µg/mL
same,MBEC,Enterococcus faecalis [16],>512 µg/mL
same,MIC,Escherichia coli [17],12.5 µg/mL
same,MIC,Pseudomonas aeruginosa [18],0.5 µg/mL
same,MBEC,Staphylococcus aureus,>512 µg/mL
same,fractional inhibitory concentration index (FICI),Pseudomonas aeruginosa [19],<0.5
same,MIC,Escherichia coli [20],6.25 µg/mL
same,MIC,Escherichia coli [21],3.5 µg/mL
H-ILRWPWWPWRRK-NH2 [OMIGANAN],MIC,Enterococcus faecium [22],2 µg/mL
CCCCCCCCCCCCCCCCC[C@H]1CN(C)[C@@H]([C@H](O[C@@H]2O[C@H](CN)[C@@H](O)[C@H]2O)[C@H]2O[C@@H](n3ccc(=O)[nH]c3=O)[C@H](O)[C@@H]2O)C(=O)N(C)[C@@H]1C(=O)O,MIC,Enterococcus faecalis [23],8 µg/mL
same,MIC,Enterococcus faecium [24],8 µg/mL
